In PMC11859184, “Synthesis and Evaluation of ^68Ga- and ^177Lu-Labeled [diF-Pro^14]Bombesin(6−14) Analogs for Detection and Radioligand Therapy of Gastrin-Releasing Peptide Receptor-Expressing Cancer” (Pharmaceuticals, 2025):
Read-outs that look alike come from different tables or passages of the source.

Assay: Ex vivo biodistribution of 177Lu-labeled ligands in PC-3 tumor-bearing mice
Settings: mouse; for tissue to tissue ratio at 1 h / tissue uptake at 1 h: 1 h pi; for tissue to tissue ratio at 4 h / tissue uptake at 4 h: 4 h pi; for tissue to tissue ratio at 24 h / tissue uptake at 24 h: 24 h pi; for tissue to tissue ratio at 120 h / tissue uptake at 120 h: 120 h pi; for tissue uptake at 1 h / tissue uptake at 4 h / tissue uptake at 24 h / tissue uptake at 72 h / tissue uptake at 120 h: intravenous
Method: SPECT/CT imaging was conducted using an MI Labs (Houten, The Netherlands) U-SPECT-II/CT scanner with a custom-made ultra-high sensitivity big mouse collimator (2 mm pinhole size) following published procedure. The experiments were obtained in accordance with the same protocol established in the PET/CT imaging and ex vivo biodistributions section. The mice were used for SPECT/CT imaging and ex vivo biodistributions studies once the tumors reached a diameter of 5–8 mm. PC-3 tumor-bearing mice were sedated (2.5% isoflurane in O2) and injected with 31.4–36.9 MBq of the ^177Lu-labeled ligand through a lateral caudal tail vein. The mouse was imaged at 1, 4, 24, 72, and 120 h pi. At each time point, a 5 min CT scan was performed with 615 μA and 60 kV parameters for localization and attenuation, followed by two 30 min static SPECT scans in list mode with an energy window centered around 208 keV. The U-SPECT II software was used to reconstruct data, and the images were decay corrected to the time of injection with PMOD v 3.402 (PMOD Technologies GmbH, Fallanden, Switzerland).
For ex vivo biodistribution studies, the mice were injected with ~3–5 MBq of the ^177Lu-labeled ligand (n = 5). At 1, 4, 24, 72, and 120 h post-injection, the mice were anesthetized with 2% isoflurane, euthanized by CO2 inhalation, and the tissues/organs of interest were […] for radioactivity counting. The blocking study was performed at 1 h pi via co-injection of the ^177Lu-labeled ligand with 100 μg of [D-Phe^6,Leu-NHEt^13,des-Met^14]Bombesin(6–14).

[1] = male, NOD.Cg-Rag1^tm1Mom Il2rg^tm1Wjl/SzJ (NRG), tumor/blood, iv, total radioactivity, n = 5, read-out: Tumor/blood uptake ratio
[2] = male, NOD.Cg-Rag1^tm1Mom Il2rg^tm1Wjl/SzJ (NRG), tumor/kidney, iv, total radioactivity, n = 5, read-out: Tumor/kidney uptake ratio
[3] = male, NOD.Cg-Rag1^tm1Mom Il2rg^tm1Wjl/SzJ (NRG), tumor/muscle, iv, total radioactivity, n = 5, read-out: Tumor/muscle uptake ratio
[4] = male, NOD.Cg-Rag1^tm1Mom Il2rg^tm1Wjl/SzJ (NRG), tumor/pancreas, iv, total radioactivity, n = 5, read-out: Tumor/pancreas uptake ratio
[5] = PC-3 tumor, n = 5, read-out: PC-3 tumor uptake
[6] = adrenal glands, n = 5, read-out: Adrenal glands uptake
[7] = blood, n = 5, read-out: Blood uptake
[8] = bone, n = 5, read-out: Bone uptake
[9] = brain, n = 5, read-out: Brain uptake
[10] = fat, n = 5, read-out: Fat uptake
[11] = heart, n = 5, read-out: Heart uptake

tissue uptake (male, NOD.Cg-Rag1^tm1Mom Il2rg^tm1Wjl/SzJ (NRG), iv, total radioactivity, all time points, read-out: uptake in all other collected organs/tissues (other than tumor, pancreas, kidney)): < 1 %ID/g
tissue to tissue ratio at 1 h (male, NOD.Cg-Rag1^tm1Mom Il2rg^tm1Wjl/SzJ (NRG), tumor/blood, iv, total radioactivity, blocked (100 µg GRPR antagonist co-injected), read-out: Tumor/blood uptake ratio): 6.37 ± 1.92
tissue to tissue ratio at 1 h [1]: 16.1 ± 2.2
tissue to tissue ratio at 4 h [1]: 144 ± 33.5
tissue to tissue ratio at 24 h [1]: 813 ± 203
tissue to tissue ratio at 72 h (male, NOD.Cg-Rag1^tm1Mom Il2rg^tm1Wjl/SzJ (NRG), tumor/blood, iv, total radioactivity, 72 h pi, n = 5, read-out: Tumor/blood uptake ratio): 1120 ± 440
tissue to tissue ratio at 120 h [1]: 1630 ± 548
tissue to tissue ratio at 1 h (male, NOD.Cg-Rag1^tm1Mom Il2rg^tm1Wjl/SzJ (NRG), tumor/kidney, iv, total radioactivity, blocked (100 µg GRPR antagonist co-injected), read-out: Tumor/kidney uptake ratio): 0.89 ± 0.22
tissue to tissue ratio at 1 h [2]: 2.65 ± 0.64
tissue to tissue ratio at 4 h [2]: 2.96 ± 0.3
tissue to tissue ratio at 24 h [2]: 5.67 ± 1.43
tissue to tissue ratio at 72 h (male, NOD.Cg-Rag1^tm1Mom Il2rg^tm1Wjl/SzJ (NRG), tumor/kidney, iv, total radioactivity, 72 h pi, n = 5, read-out: Tumor/kidney uptake ratio): 8.43 ± 2.89
tissue to tissue ratio at 120 h [2]: 14.1 ± 4.53
tissue to tissue ratio at 1 h (male, NOD.Cg-Rag1^tm1Mom Il2rg^tm1Wjl/SzJ (NRG), tumor/muscle, iv, total radioactivity, blocked (100 µg GRPR antagonist co-injected), read-out: Tumor/muscle uptake ratio): 23.2 ± 5.2
tissue to tissue ratio at 1 h [3]: 78.3 ± 13
tissue to tissue ratio at 4 h [3]: 196 ± 53.1
tissue to tissue ratio at 24 h [3]: 520 ± 113
tissue to tissue ratio at 72 h (male, NOD.Cg-Rag1^tm1Mom Il2rg^tm1Wjl/SzJ (NRG), tumor/muscle, iv, total radioactivity, 72 h pi, n = 5, read-out: Tumor/muscle uptake ratio): 522 ± 189
tissue to tissue ratio at 120 h [3]: 744 ± 179
tissue to tissue ratio at 1 h (male, NOD.Cg-Rag1^tm1Mom Il2rg^tm1Wjl/SzJ (NRG), tumor/pancreas, iv, total radioactivity, blocked (100 µg GRPR antagonist co-injected), read-out: Tumor/pancreas uptake ratio): 6.72 ± 2.24
tissue to tissue ratio at 1 h [4]: 3.57 ± 0.42
tissue to tissue ratio at 4 h [4]: 4.91 ± 0.14
tissue to tissue ratio at 24 h [4]: 5.7 ± 0.81
tissue to tissue ratio at 72 h (male, NOD.Cg-Rag1^tm1Mom Il2rg^tm1Wjl/SzJ (NRG), tumor/pancreas, iv, total radioactivity, 72 h pi, n = 5, read-out: Tumor/pancreas uptake ratio): 8.37 ± 3.35
tissue to tissue ratio at 120 h [4]: 17.1 ± 2.1
tissue uptake at 1 h (PC-3 tumor, 100 ug, blocked (100 µg GRPR antagonist co-injected), read-out: PC-3 tumor uptake): 3.25 ± 0.44 %ID/g
tissue uptake at 1 h [5]: 9.59 ± 3.37 %ID/g
tissue uptake at 4 h [5]: 8.38 ± 0.19 %ID/g
tissue uptake at 24 h [5]: 5.78 ± 0.4 %ID/g
tissue uptake at 72 h (PC-3 tumor, 72 h pi, n = 5, read-out: PC-3 tumor uptake): 2.74 ± 0.85 %ID/g
tissue uptake at 120 h [5]: 2.19 ± 0.59 %ID/g
tissue uptake at 72 h (PC-3 tumor, after 72 h pi, read-out: tumor uptake): < 3 %ID/g
tissue uptake at 1 h (adrenal glands, 100 ug, blocked (100 µg GRPR antagonist co-injected), read-out: Adrenal glands uptake): 0.27 ± 0.06 %ID/g
tissue uptake at 1 h [6]: 0.46 ± 0.15 %ID/g
tissue uptake at 4 h [6]: 0.33 ± 0.15 %ID/g
tissue uptake at 24 h [6]: 0.36 ± 0.3 %ID/g
tissue uptake at 72 h (adrenal glands, 72 h pi, n = 5, read-out: Adrenal glands uptake): 0.13 ± 0.07 %ID/g
tissue uptake at 120 h [6]: 0.1 ± 0.02 %ID/g
tissue uptake at 1 h (blood, 100 ug, blocked (100 µg GRPR antagonist co-injected), read-out: Blood uptake): 0.43 ± 0.23 %ID/g
tissue uptake at 1 h [7]: 0.59 ± 0.18 %ID/g
tissue uptake at 4 h [7]: 0.06 ± 0.02 %ID/g
tissue uptake at 24 h [7]: 0.01 %ID/g
tissue uptake at 1 h (bone, 100 ug, blocked (100 µg GRPR antagonist co-injected), read-out: Bone uptake): 0.12 ± 0.04 %ID/g
tissue uptake at 1 h [8]: 0.23 ± 0.06 %ID/g
tissue uptake at 4 h [8]: 0.1 ± 0.08 %ID/g
tissue uptake at 24 h [8]: 0.02 ± 0.01 %ID/g
tissue uptake at 72 h (bone, 72 h pi, n = 5, read-out: Bone uptake): 0.02 %ID/g
tissue uptake at 120 h [8]: 0.02 %ID/g
tissue uptake at 1 h (brain, 100 ug, blocked (100 µg GRPR antagonist co-injected), read-out: Brain uptake): 0.02 ± 0.01 %ID/g
tissue uptake at 1 h [9]: 0.02 ± 0.01 %ID/g
tissue uptake at 4 h [9]: 0.01 %ID/g
tissue uptake at 1 h (fat, 100 ug, blocked (100 µg GRPR antagonist co-injected), read-out: Fat uptake): 0.06 ± 0.03 %ID/g
tissue uptake at 1 h [10]: 0.08 ± 0.02 %ID/g
tissue uptake at 4 h [10]: 0.02 ± 0.01 %ID/g
tissue uptake at 24 h [10]: 0.01 %ID/g
tissue uptake at 120 h [10]: 0.01 ± 0.01 %ID/g
tissue uptake at 1 h (heart, 100 ug, blocked (100 µg GRPR antagonist co-injected), read-out: Heart uptake): 0.13 ± 0.05 %ID/g
tissue uptake at 1 h [11]: 0.19 ± 0.05 %ID/g
tissue uptake at 4 h [11]: 0.06 ± 0.02 %ID/g
tissue uptake at 24 h [11]: 0.02 %ID/g
Compound: CC(C)C[C@H](NC(=O)[C@H](Cc1cnc[nH]1)N(C)C(=O)CNC(=O)[C@@H](NC(=O)[C@H](C)NC(=O)[C@H](Cc1c[nH]c2ccccc12)NC(=O)[C@H](CCC(N)=O)NC(=O)[C@@H](Cc1ccccc1)NC(=O)CN1CCC(NC(=O)CN2CCN(CC(=O)O)CCN(CC(=O)O)CCN(CC(=O)O)CC2)CC1)C(C)(C)C)C(=O)N1CC(F)(F)C[C@H]1C(N)=O [[^177Lu]Lu-LW02060, metal not drawn]
